{
  "source": "ChEMBL document CHEMBL3351515",
  "about": "“α-Hexylcinnamaldehyde inhibits the genotoxicity of environmental pollutants in the bacterial reverse mutation assay” (2014)",
  "key": {"[1]": {"system": "Salmonella typhimurium", "experiment": "Antimutagenic activity against sodium azide-induced revertant colonies in Salmonella typhimurium TA100 assessed as number of revertant colonies measured pretreatment at 9 uM (reference value: 1968 +/- 46.9) in absence of mammalian S9 fraction", "type": "functional, Salmonella enterica subsp. enterica serovar Typhimurium"}, "[2]": {"system": "Salmonella typhimurium", "experiment": "Antimutagenic activity against sodium azide-induced revertant colonies in Salmonella typhimurium TA100 assessed as number of revertant colonies measured pretreatment at 18 uM (reference value: 1968 +/- 46.9) in absence of mammalian S9 fraction", "type": "functional, Salmonella enterica subsp. enterica serovar Typhimurium"}, "[3]": {"system": "Salmonella typhimurium", "experiment": "Antimutagenic activity against sodium azide-induced revertant colonies in Salmonella typhimurium TA100 assessed as number of revertant colonies measured pretreatment at 900 uM (reference value: 1968 +/- 46.9) in absence of mammalian S9 fraction", "type": "functional, Salmonella enterica subsp. enterica serovar Typhimurium"}, "[4]": {"system": "Salmonella typhimurium", "experiment": "Antimutagenic activity against 2-aminoanthracene-induced revertant colonies in Salmonella typhimurium TA100 assessed as number of revertant colonies measured pretreatment at 180 uM (reference value: 481.3 +/- 5.3) in presence of mammalian S9 fraction", "type": "functional, Salmonella enterica subsp. enterica serovar Typhimurium"}, "[5]": {"system": "Salmonella typhimurium", "experiment": "Antimutagenic activity against 2-aminoanthracene-induced revertant colonies in Salmonella typhimurium TA100 assessed as number of revertant colonies measured pretreatment at 900 uM (reference value: 481.3 +/- 5.3) in presence of mammalian S9 fraction", "type": "functional, Salmonella enterica subsp. enterica serovar Typhimurium"}, "[6]": {"system": "Salmonella typhimurium", "experiment": "Antimutagenic activity against sodium azide-induced revertant colonies in Salmonella typhimurium TA100 assessed as number of revertant colonies measured cotreatment at 90 uM (reference value: 1588 +/- 55.6) in absence of mammalian S9 fraction", "type": "functional, Salmonella enterica subsp. enterica serovar Typhimurium"}, "[7]": {"system": "Salmonella typhimurium", "experiment": "Antimutagenic activity against sodium azide-induced revertant colonies in Salmonella typhimurium TA100 assessed as number of revertant colonies measured cotreatment at 180 uM (reference value: 1588 +/- 55.6) in absence of mammalian S9 fraction", "type": "functional, Salmonella enterica subsp. enterica serovar Typhimurium"}, "[8]": {"system": "Salmonella typhimurium", "experiment": "Antimutagenic activity against sodium azide-induced revertant colonies in Salmonella typhimurium TA100 assessed as number of revertant colonies measured cotreatment at 900 uM (reference value: 1588 +/- 55.6) in absence of mammalian S9 fraction", "type": "functional, Salmonella enterica subsp. enterica serovar Typhimurium"}, "[9]": {"system": "Salmonella typhimurium", "experiment": "Antimutagenic activity against 2-aminoanthracene-induced revertant colonies in Salmonella typhimurium TA100 assessed as number of revertant colonies measured cotreatment at 9 uM (reference value: 457.9 +/- 16.74) in presence of mammalian S9 fraction", "type": "functional, Salmonella enterica subsp. enterica serovar Typhimurium"}, "[10]": {"system": "Salmonella typhimurium", "experiment": "Antimutagenic activity against 2-aminoanthracene-induced revertant colonies in Salmonella typhimurium TA100 assessed as number of revertant colonies measured cotreatment at 18 uM (reference value: 457.9 +/- 16.74) in presence of mammalian S9 fraction", "type": "functional, Salmonella enterica subsp. enterica serovar Typhimurium"}, "[11]": {"system": "Salmonella typhimurium", "experiment": "Antimutagenic activity against sodium azide-induced revertant colonies in Salmonella typhimurium TA100 assessed as number of revertant colonies measured post-treatment at 9 uM (reference value: 1909 +/- 29.7) in absence of mammalian S9 fraction", "type": "functional, Salmonella enterica subsp. enterica serovar Typhimurium"}, "[12]": {"system": "Salmonella typhimurium", "experiment": "Antimutagenic activity against 2-aminoanthracene-induced revertant colonies in Salmonella typhimurium TA100 assessed as number of revertant colonies measured post-treatment at 9 uM (reference value: 642.7 +/- 2.7) in presence of mammalian S9 fraction", "type": "functional, Salmonella enterica subsp. enterica serovar Typhimurium"}, "[13]": {"system": "Salmonella typhimurium", "experiment": "Antimutagenic activity against 2-aminoanthracene-induced revertant colonies in Salmonella typhimurium TA100 assessed as number of revertant colonies measured post-treatment at 90 uM (reference value: 642.7 +/- 2.7) in presence of mammalian S9 fraction", "type": "functional, Salmonella enterica subsp. enterica serovar Typhimurium"}, "[14]": {"system": "Salmonella typhimurium", "experiment": "Antimutagenic activity against 2-aminoanthracene-induced revertant colonies in Salmonella typhimurium TA100 assessed as number of revertant colonies measured post-treatment at 180 uM (reference value: 642.7 +/- 2.7) in presence of mammalian S9 fraction", "type": "functional, Salmonella enterica subsp. enterica serovar Typhimurium"}, "[15]": {"system": "Salmonella typhimurium", "experiment": "Antimutagenic activity against 2-aminoanthracene-induced revertant colonies in Salmonella typhimurium TA100 assessed as number of revertant colonies measured post-treatment at 900 uM (reference value: 642.7 +/- 2.7) in presence of mammalian S9 fraction", "type": "functional, Salmonella enterica subsp. enterica serovar Typhimurium"}, "[16]": {"system": "Escherichia coli", "experiment": "Antimutagenic activity against methyl methansulfonate-induced revertant colonies in Escherichia coli WP2uvrA assessed as number of revertant colonies measured pretreatment at 180 uM (reference value: 466.7 +/- 40.4) in absence of mammalian S9 fraction", "type": "functional"}, "[17]": {"system": "Escherichia coli", "experiment": "Antimutagenic activity against 2-aminoanthracene-induced revertant colonies in Escherichia coli WP2uvrA assessed as number of revertant colonies measured pretreatment at 9 uM (reference value: 178.7 +/- 11.8) in presence of mammalian S9 fraction", "type": "functional"}, "[18]": {"system": "Escherichia coli", "experiment": "Antimutagenic activity against 2-aminoanthracene-induced revertant colonies in Escherichia coli WP2uvrA assessed as number of revertant colonies measured pretreatment at 90 uM (reference value: 178.7 +/- 11.8) in presence of mammalian S9 fraction", "type": "functional"}, "[19]": {"system": "Escherichia coli", "experiment": "Antimutagenic activity against methyl methansulfonate-induced revertant colonies in Escherichia coli WP2uvrA assessed as number of revertant colonies measured cotreatment at 90 uM (reference value: 485.3 +/- 17.5) in absence of mammalian S9 fraction", "type": "functional"}, "[20]": {"system": "Escherichia coli", "experiment": "Antimutagenic activity against 2-aminoanthracene-induced revertant colonies in Escherichia coli WP2uvrA assessed as number of revertant colonies measured cotreatment at 18 uM (reference value: 366 +/- 10.3) in presence of mammalian S9 fraction", "type": "functional"}, "[21]": {"system": "Escherichia coli", "experiment": "Antimutagenic activity against methyl methansulfonate-induced revertant colonies in Escherichia coli WP2uvrA assessed as number of revertant colonies measured post-treatment at 18 uM (reference value: 726.7 +/- 12.7) in absence of mammalian S9 fraction", "type": "functional"}, "[22]": {"system": "Escherichia coli", "experiment": "Antimutagenic activity against methyl methansulfonate-induced revertant colonies in Escherichia coli WP2uvrA assessed as number of revertant colonies measured post-treatment at 180 uM (reference value: 726.7 +/- 12.7) in absence of mammalian S9 fraction", "type": "functional"}, "[23]": {"system": "Escherichia coli", "experiment": "Antimutagenic activity against 2-aminoanthracene-induced revertant colonies in Escherichia coli WP2uvrA assessed as number of revertant colonies measured post-treatment at 900 uM (reference value: 308 +/- 4) in presence of mammalian S9 fraction", "type": "functional"}, "[24]": {"system": "Salmonella typhimurium", "experiment": "Antimutagenic activity against 2-nitrofluorene-induced revertant colonies in Salmonella typhimurium TA98 assessed as inhibition of mutagenicity measured at 9 to 18 uM", "type": "functional, Salmonella enterica subsp. enterica serovar Typhimurium"}, "[25]": {"system": "Salmonella typhimurium", "experiment": "Antimutagenic activity against 1,8-dinitropyrene-induced revertant colonies in Salmonella typhimurium TA98 assessed as inhibition of mutagenicity measured at 90 to 180 uM", "type": "functional, Salmonella enterica subsp. enterica serovar Typhimurium"}, "[26]": {"system": "Salmonella typhimurium", "experiment": "Antimutagenic activity against 4-nitroquinoline N-oxide-induced revertant colonies in Salmonella typhimurium TA98 assessed as inhibition of mutagenicity measured at 9 to 18 uM", "type": "functional, Salmonella enterica subsp. enterica serovar Typhimurium"}, "[27]": {"system": "Salmonella typhimurium", "experiment": "Antimutagenic activity against 4-nitroquinoline N-oxide-induced revertant colonies in Salmonella typhimurium TA98 assessed as inhibition of mutagenicity measured at 900 uM", "type": "functional, Salmonella enterica subsp. enterica serovar Typhimurium", "conditions": "Salmonella enterica"}, "[28]": {"system": "Salmonella typhimurium", "experiment": "Antimutagenic activity against 1-nitropyrene-induced revertant colonies in Salmonella typhimurium TA98NR assessed as inhibition of mutagenicity measured at 90 to 180 uM", "type": "functional, Salmonella enterica subsp. enterica serovar Typhimurium"}, "[29]": {"system": "Salmonella typhimurium", "experiment": "Antimutagenic activity against 1-nitropyrene-induced revertant colonies in Salmonella typhimurium TA98 1,8 DNP assessed as inhibition of mutagenicity measured at 9 to 18 uM", "type": "functional, Salmonella enterica subsp. enterica serovar Typhimurium"}, "[30]": {"system": "Salmonella typhimurium", "experiment": "Antimutagenic activity against 1-nitropyrene-induced revertant colonies in Salmonella typhimurium TA98 1,8 DNP assessed as inhibition of mutagenicity measured at 900 uM", "type": "functional, Salmonella enterica subsp. enterica serovar Typhimurium", "conditions": "Salmonella enterica"}},
  "data": [
    {"smiles": "CCCCCC/C(C=O)=C\\c1ccccc1", "values": [
      {"measurement": "Activity", "setting": "[1]", "value": 1877},
      {"measurement": "Activity", "setting": "[2]", "value": 1861},
      {"measurement": "Activity", "setting": "[3]", "value": 1652},
      {"measurement": "Activity", "setting": "[4]", "value": 384},
      {"measurement": "Activity", "setting": "[5]", "value": 365.3},
      {"measurement": "Activity", "setting": "[6]", "value": 1477},
      {"measurement": "Activity", "setting": "[7]", "value": 1457},
      {"measurement": "Activity", "setting": "[8]", "value": 1451},
      {"measurement": "Activity", "setting": "[9]", "value": 449.3},
      {"measurement": "Activity", "setting": "[10]", "value": 446},
      {"measurement": "Activity", "setting": "[11]", "value": 1888},
      {"measurement": "Activity", "setting": "[12]", "value": 637.3},
      {"measurement": "Activity", "setting": "[13]", "value": 530},
      {"measurement": "Activity", "setting": "[14]", "value": 520},
      {"measurement": "Activity", "setting": "[15]", "value": 481.3},
      {"measurement": "Activity", "setting": "[16]", "value": 376},
      {"measurement": "Activity", "setting": "[17]", "value": 170.7},
      {"measurement": "Activity", "setting": "[18]", "value": 152.3},
      {"measurement": "Activity", "setting": "[19]", "value": 466.7},
      {"measurement": "Activity", "setting": "[20]", "value": 330.7},
      {"measurement": "Activity", "setting": "[21]", "value": 524},
      {"measurement": "Activity", "setting": "[22]", "value": 488},
      {"measurement": "Activity", "setting": "[23]", "value": 304.3},
      {"measurement": "inhibition (INH)", "setting": "[24]", "value": "<25", "unit": "%"},
      {"measurement": "inhibition (INH)", "setting": "[25]", "value": 25, "unit": "%"},
      {"measurement": "inhibition (INH)", "setting": "[26]", "value": "<25", "unit": "%"},
      {"measurement": "inhibition at 900 µM", "setting": "[27]", "value": "> 40", "unit": "%"},
      {"measurement": "inhibition (INH)", "setting": "[28]", "value": 25, "unit": "%"},
      {"measurement": "inhibition (INH)", "setting": "[29]", "value": "<25", "unit": "%"},
      {"measurement": "inhibition at 900 µM", "setting": "[30]", "value": "> 40", "unit": "%"}
    ]}
  ]
}
